Data set [1] has as its system PAK4 interactors and downstream proteins. Put plainly: Immunoblots of PAK4 interactors and downstream proteins in U2OS cells. Type of data set: cell-based, human. Particulars: 0.5 μM or 5 μM, 72 hours. The method, then: Immunoblots were used to measure the effects of exemplary compounds on protein steady-state levels and phophorylation of PAK4 interactor and downstream proteins. Specifically, U2OS (osteosarcoma) cells were split and plated on day 1. After overnight attachment to the tissue culture plate, cells were treated with either DMSO (0), 37 nM, 111 nM, 333 nM, 1 μM, or 3 μM Compound 246 for 72 hours. Cells were collected, washed and lysed in RIPA buffer. After obtaining the protein concentration by BCA assay, lysates were boiled in loading buffer and run on SDS-PAGE. The gels were transferred to nitrocellulose membranes and blotted with antibodies raised against phosphor-PAK4, PAK4, phophos-beta-catenin, beta-catenin, GEF-H1, phospho-Akt, Akt, phospho-ERK1/2, ERK1/2, phospho-cofilin, cofilin, phospho-histone H3, histone H3, cyclin D1, Mcl-1, Bcl-2, p21, survivin, caspase 8, caspase 3, PARP, and beta-actin (loading control).
In another experiment, U2OS (osteosarcoma) cells were split and plated on day 1. After overnight attachment to the tissue culture plate, cells were treated with DMSO (Ct), 0.5 μM, or 5 μM of Compound 124, 369, 226, 246, or 907 for 72 hours. Cells were collected, washed and lysed in RIPA buffer. After obtaining the protein concentration by BCA assay, lysates were boiled in loading buffer and run on SDS-PAGE. The gels were transferred to nitrocellulose membranes and blotted with antibodies raised against phophos-beta-catenin, cyclin D1, PAK4, phospho-cofilin, and beta-actin (loading control).
(A western blot detects proteins with antibodies after separation by electrophoresis.)

A further data set deals with Z138 cells. Put plainly: MTT cell proliferation assay, Z138. The data set is classed as cell-based. To be noted: Homo sapiens, Z-138, Z138 cells, read-out: MTT Assay IC50, Z138. The essentials:
(§1)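 Seeding 5,000-10,000 cells/well, overnight attachment; 8 concs, 1 nM–30 μM. MTT ~4 h, formazan solubilized, OD 490 nm. % inhibition vs negative control, mostly duplicate, mean±SE.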

For another data set, the system named is MS751 cells. Put plainly: MTT cell proliferation assay, MS751. Type of data set: cell-based, human. To be noted: Homo sapiens, MS751, MS751 cells, read-out: MTT Assay IC50, MS751. In outline: as §1
In general terms: Tetrazolium assays rely on reduction of a dye to a coloured formazan, in cell work by metabolically active cells.

Another data set relates to 3T3 cells. Put plainly: MTT cell proliferation assay, 3T3. The data set is classed as cell-based, mouse. Particulars: Mus musculus, NIH3T3, 3T3 cells, read-out: MTT Assay IC50, 3T3. In outline: as §1
A further data set has as its system Z-138 cells. Put plainly: Cell cycle arrest (BrdU / 7-AAD flow cytometry). Type of data set: cell-based. Particulars: 1 μM for 1, 2 and 3 days. How it is done: Z-138 cells (mantle cell lymphoma) were plated at a density of 1×10^6 cells/well and treated with no drug (DMSO control) or with 1 μM Compound 123 for 1, 2, and 3 days in culture. For each time point, cells were treated with 10 μM BrdU for 2 hours, then collected by centrifugation. Cells were subsequently washed, fixed, and then stained for BrdU and total DNA (7-AAD). BrdU incorporation and cell cycle analysis were analyzed by flow cytometry at the Dana Farber Cancer Institute on a BD Fortessa Analyzer. Data was then analyzed using FCS Express 4 software.
FIGS. 1A, 1B, 1C and 1D are single-cell scatter plots and show BrdU versus 7-AAD for Z138 cells treated with no drug (FIG. 1A) or treated with 1 μM Compound 123 for 1 day (FIG. 1B), 2 days (FIG. 1C), or 3 days (FIG. 1D). Graphs showing cell count versus 7-AAD intensities are depicted below their corresponding scatter plots.
Background: Flow cytometry measures light scatter and fluorescence of single cells or particles in a stream.

For data set [2], the system named is Z-138 mantle cell lymphoma cancer xenograft. The experiment in a line: Z-138 mouse xenograft model. Type of data set: in vivo. Particulars: QDx5/week for 4 weeks, SCID mice with Z-138 tumors; for tumor growth (mean tumor volume): versus cyclophosphamide 80 mg/kg Days 1-3. How it is done: The oncological impact of selected substituted 2,3-dihydrobenzofuranyl compounds was tested using a Z-138 mantle cell lymphoma cancer xenograft model in SCID mice. SCID Mice were inoculated s.c. in both flanks with 5×10^6 Z-138 cells. When the tumors reached a mean size of between 100 and 200 mm^3, mice were randomly and prospectively divided. Tumor-bearing mice were treated with vehicle, cyclophosphamide (positive control) or Compound 123 on M-F (QDx5/week) for 4 weeks. Compound 123 was administered orally (PO) at initial doses of 30 and 100 mg/kg five times a week. Cyclophosphamide was given as a positive control at 80 mg/kg on Days 1-3. Animals' weights and conditions were recorded daily, and tumors were measured on Mondays-Wednesdays-Fridays.

Setting [3] is: approximately 64-72 hours incubation.
Where [4] appears, read: eight concentrations 1 nM to 30 μM, incubation approximately 64-72 hours.

Each structure is given as a SMILES string. Structures can show the parent of a compound that is named as a salt. Where two headings read alike, the source gives them in different places. Bounds are passed on as bounds.

As to `Nc1ccc(CNC(=O)/C=C/C2Cc3cc(-c4ccc(C(=O)N5CCOCC5)cc4)cc(Cl)c3O2)cn1` (centres unmarked) [Compound 907, (E)-N-((6-aminopyridin-3-yl)methyl)-3-(7-chloro-5-(4-(morpholine-4-carbonyl)phenyl)-2,3-dihydrobenzofuran-2-yl)acrylamide hydrochloride], in data set [1], the PAK4 total protein result was “decrease”. Moreover, the “phosphorylation of PAK4 signaling proteins beta-catenin and cofilin” value in data set [1] is recorded as “decreases in phosphorylation”. The IC50 (as a rule, the point on the concentration scale where inhibition reaches its midpoint) in the data set with Z138 cells (setting [3]) was less than 0.1 µM; in the data set on MS751 cells (setting [3]), less than 0.1 µM; in the data set with 3T3 cells (setting [3]), 5 to 30 µM.

In the case of `CC(=O)c1ccc(-c2cc(Cl)c3c(c2)CC(CNC(=O)/C=C/c2cccnc2)O3)s1` (single isomer, unassigned) [Compound 123, (E)-N-((5-(5-acetylthiophen-2-yl)-7-chloro-2,3-dihydrobenzofuran-2-yl)methyl)-3-(pyridin-3-yl)acrylamide], the values for the IC50 in the data set with Z138 cells (setting [4]), with MS751 cells (setting [4]) and in the data set on 3T3 cells (setting [4]) were less than 0.1 µM, less than 0.1 µM and 0.1 to 5 µM, respectively. Moreover, in the data set on Z-138 cells, the G1 result is reported as “no change”. Also, the G2/M result with Z-138 cells is on record as “increased”. For the same compound, the S phase entry in the data set with Z-138 cells is reported as “significant decrease”. Moreover, the sub-G1 fraction result in the data set with Z-138 cells is recorded as “small increase”. In addition, the figures for the “tumor growth (mean tumor volume)” value in data set [2] (30 mg/kg PO) and in data set [2] (100 mg/kg PO) were “inhibited tumor growth with an efficacy better than that of cyclophosphamide” and “inhibited tumor growth with an efficacy similar to cyclophosphamide”, respectively. Moreover, the “tolerability (mean percent weight change)” value in data set [2] (30 and 100 mg/kg PO) is “tolerated at both doses”.

With `CC(=O)c1ccc(-c2cc(Cl)c3c(c2)CC(CNC(=O)/C=C/c2cccnc2N)O3)s1` (centres unmarked) [Compound 106, (E)-N-((5-(5-acetylthiophen-2-yl)-7-chloro-2,3-dihydrobenzofuran-2-yl)methyl)-3-(2-aminopyridin-3-yl)acrylamide], the IC50 in the data set on Z138 cells (setting [4]), in the data set on MS751 cells (setting [4]) and with 3T3 cells (setting [4]) was 5 to 30 µM each time.

Turning to `CS(=O)(=O)c1cccc(-c2cc(Cl)c3c(c2)CC(CNC(=O)/C=C/c2cccnc2)O3)c1` (centres unmarked) [Compound 80, (E)-N-((7-chloro-5-(3-(methylsulfonyl)phenyl)-2,3-dihydrobenzofuran-2-yl)methyl)-3-(pyridin-3-yl)acrylamide], the IC50 in the data set with Z138 cells (setting [4]), in the data set on MS751 cells (setting [4]) and in the data set with 3T3 cells (setting [4]) was 0.1 to 5 µM in each case.

Consider `CC(=O)c1ccc(-c2cc(Cl)c3c(c2)CC(CNC(=O)/C=C/c2cnc(C)s2)O3)s1` (centres unmarked) [Compound 148, (E)-N-((5-(5-acetylthiophen-2-yl)-7-chloro-2,3-dihydrobenzofuran-2-yl)methyl)-3-(2-methylthiazol-5-yl)acrylamide], for which the IC50 was more than 30 µM in the data set with Z138 cells (setting [4]), 5 to 30 µM with MS751 cells (setting [4]) and more than 30 µM in the data set with 3T3 cells (setting [4]).

In the case of `Nc1ccc(/C=C/C(=O)NCC2Cc3cc(-c4cnc(C(=O)N5CCOCC5)c(Cl)c4)cc(Cl)c3O2)cn1` (centres unmarked) [Compound 326, (E)-3-(6-aminopyridin-3-yl)-N-((7-chloro-5-(5-chloro-6-(morpholine-4-carbonyl)pyridin-3-yl)-2,3-dihydrobenzofuran-2-yl)methyl)acrylamide], the IC50 in the data set on Z138 cells (setting [3]) is less than 0.1 µM; in the data set with MS751 cells (setting [3]), 0.1 to 5 µM; in the data set with 3T3 cells (setting [3]) it was 5 to 30 µM.

Consider `CC(=O)c1ccc(-c2cc(Cl)c3c(c2)CC(CNC(=O)CCc2cccnc2)O3)s1` (centres unmarked) [Compound 369, N-((5-(5-Acetylthiophen-2-yl)-7-chloro-2,3-dihydrobenzofuran-2-yl)methyl)-3-(pyridin-3-yl)propanamide], for which the PAK4 total protein entry in data set [1] is recorded as “decrease”. The “phosphorylation of PAK4 signaling proteins beta-catenin and cofilin” value in data set [1] was “decreases in phosphorylation”. The IC50 in the data set with Z138 cells (setting [3]) was 0.1 to 5 µM; with MS751 cells (setting [3]), 0.1 to 5 µM; in the data set on 3T3 cells (setting [3]) it was 5 to 30 µM.

Regarding `CC(=O)c1ccc(-c2cc(Cl)c3c(c2)CC(CNC(=O)/C=C/c2coc(C)n2)O3)s1` (centres unmarked) [Compound 196, (E)-N-((5-(5-acetylthiophen-2-yl)-7-chloro-2,3-dihydrobenzofuran-2-yl)methyl)-3-(2-methyloxazol-4-yl)acrylamide], the IC50 with Z138 cells (setting [3]), with MS751 cells (setting [3]) and in the data set with 3T3 cells (setting [3]) was more than 30 µM throughout.

Turning to `Nc1ccc(/C=C/C(=O)NCC2Cc3cc(-c4ccc(C(=O)N5CCOCC5)cc4)cc(C(F)(F)F)c3O2)cn1` (centres unmarked) [Compound 346, (E)-3-(6-aminopyridin-3-yl)-N-((5-(4-(morpholine-4-carbonyl)phenyl)-7-(trifluoromethyl)-2,3-dihydrobenzofuran-2-yl)methyl)acrylamide], the results for the IC50 with Z138 cells (setting [3]), with MS751 cells (setting [3]) and in the data set on 3T3 cells (setting [3]) were 0.1 to 5 µM, less than 0.1 µM and less than 0.1 µM, respectively.

As to `CC(=O)c1ccc(-c2cc(Cl)c3c(c2)CC(CNC(=O)/C=C/c2csc4ccccc24)O3)s1` (centres unmarked) [Compound 200, (E)-N-((5-(5-acetylthiophen-2-yl)-7-chloro-2,3-dihydrobenzofuran-2-yl)methyl)-3-(benzo[b]thiophen-3-yl) acrylamide], the IC50 in the data set with Z138 cells (setting [3]), in the data set with MS751 cells (setting [3]) and in the data set on 3T3 cells (setting [3]) was more than 30 µM each time.

As to `Nc1ccc(/C=C/C(=O)NCC2Cc3cc(-c4ccc(S(=O)(=O)N5CCOCC5)cc4)cc(Cl)c3O2)cn1` (centres unmarked) [Compound 914, (E)-3-(6-aminopyridin-3-yl)-N-((7-chloro-5-(4-(morpholinosulfonyl)phenyl)-2,3-dihydrobenzofuran-2-yl)methyl)acrylamide], the IC50 in the data set on Z138 cells (setting [3]) was less than 0.1 µM; with MS751 cells (setting [3]), less than 0.1 µM; in the data set on 3T3 cells (setting [3]), 0.1 to 5 µM.

On to `CCc1nc(C)c(/C=C/C(=O)NCC2Cc3cc(-c4ccc(C(C)=O)s4)cc(Cl)c3O2)[nH]1` (centres unmarked) [Compound 177, (E)-N-((5-(5-acetylthiophen-2-yl)-7-chloro-2,3-dihydrobenzofuran-2-yl)methyl)-3-(2-ethyl-4-methyl-1H-imidazol-5-yl)acrylamide], for which the IC50 is 0.1 to 5 µM with Z138 cells (setting [4]), 0.1 to 5 µM with MS751 cells (setting [4]) and more than 30 µM in the data set with 3T3 cells (setting [4]).

The values above are taken from patent publication US9938258B2 (Karyopharm Therapeutics Inc., priority 2012, dated 2018).
